In patent US10131652B2, “Pyrimidinyloxy benzene derivatives as herbicides” (E. I. DU PONT DE NEMOURS AND COMPANY, priority 2014, dated 2018):

Columns and labels:
Type in all cases: in vivo
[1] = tested on: Italian ryegrass (Lolium multiflorum); assay: Test B pre-/postemergence plant response
From the text: (§1) Seeds of plant species selected from bamyardgrass (Echinochloa crus-galli), kochia (Kochia scoparia), ragweed (common ragweed, Ambrosia elatior), Italian ryegrass (Lolium multiflorum), large (Lg) crabgrass (Digitaria sanguinalis), giant foxtail (Setaria faberii), momingglory (Ipomoea spp.), pigweed (Amaranthus retroflexus), velvetleaf (Abutilon theophrasti), wheat (Triticum aestivum), and corn (Zea mays) were planted into a blend of loam soil and sand and treated preemergence with a directed soil spray using test chemicals formulated in a non-phytotoxic solvent mixture which included a surfactant. At the same time, plants selected from these crop and weed species and also blackgrass (Alopecurus myosuroides), and galium (catchweed bedstraw, Galium aparine) were planted in pots containing the same blend of loam soil and sand and treated with postemergence applications of test chemicals formulated in the same manner. Plants ranged in height from 2 to 10 cm and were in the one- to two-leaf stage for the postemergence treatment. Treated plants and untreated controls were maintained in a greenhouse for approximately 10 days, after which time all treated plants were compared to untreated controls and visually evaluated for injury. Plant response ratings, summarized in Table B, are based on a 0 to 100 scale where 0 is no effect and 100 is complete control. A dash (-) response means no test result.

[2] = tested on: barnyardgrass (Echinochloa crus-galli); assay: Test B pre-/postemergence plant response
From the text: as §1

corn (Zea mays) = assay: Test B pre-/postemergence plant response; conditions: Postemergence, 0 to 100 scale (0 no effect, 100 complete control)
From the text: as §1

[3] = tested on: giant foxtail (Setaria faberii); assay: Test B pre-/postemergence plant response
From the text: as §1

kochia (Kochia scoparia) = assay: Test B pre-/postemergence plant response
From the text: as §1

[4] = tested on: pigweed (Amaranthus retroflexus); assay: Test B pre-/postemergence plant response
From the text: as §1

[5] = tested on: ragweed (common ragweed, Ambrosia elatior); assay: Test B pre-/postemergence plant response
From the text: as §1

[6] = tested on: wheat (Triticum aestivum); assay: Test B pre-/postemergence plant response; conditions: Postemergence, 0 to 100 scale (0 no effect, 100 complete control)
From the text: as §1

[7] = tested on: blackgrass (Alopecurus myosuroides); assay: Test B postemergence plant response; conditions: Postemergence, 0 to 100 scale (0 no effect, 100 complete control)
From the text: (§2) At the same time, plants selected from these crop and weed species and also blackgrass (Alopecurus myosuroides), and galium (catchweed bedstraw, Galium aparine) were planted in pots containing the same blend of loam soil and sand and treated with postemergence applications of test chemicals formulated in the same manner. Plants ranged in height from 2 to 10 cm and were in the one- to two-leaf stage for the postemergence treatment. Treated plants and untreated controls were maintained in a greenhouse for approximately 10 days, after which time all treated plants were compared to untreated controls and visually evaluated for injury. Plant response ratings, summarized in Table B, are based on a 0 to 100 scale where 0 is no effect and 100 is complete control. A dash (-) response means no test result.

[8] = tested on: galium (catchweed bedstraw, Galium aparine); assay: Test B postemergence plant response; conditions: Postemergence, 0 to 100 scale (0 no effect, 100 complete control)
From the text: as §2

[9] = Postemergence, 1000 g ai/ha, 0 to 100 scale (0 no effect, 100 complete control)
[10] = Preemergence, 1000 g ai/ha, 0 to 100 scale (0 no effect, 100 complete control)
[11] = Postemergence, 500 g ai/ha, 0 to 100 scale (0 no effect, 100 complete control)
[12] = Preemergence, 500 g ai/ha, 0 to 100 scale where 0 is no effect and 100 is complete control

**Q.** What does the source list for `Clc1cnc(Oc2ccccc2-c2ncns2)nc1` [Compound 172]?
**A.** Plant response rating, Ryegrass, Italian [1, 9]: 0; Plant response rating, Ryegrass, Italian [1, 10]: 0; Plant response rating, Barnyardgrass [2, 9]: 10; Plant response rating, Barnyardgrass [2, 10]: 0; Plant response rating, Corn (corn (Zea mays); 1000 g ai/ha): 10; Plant response rating, Foxtail, Giant [3, 9]: 10; Plant response rating, Foxtail, Giant [3, 10]: 30; Plant response rating, Kochia (kochia (Kochia scoparia); [9]): 30; Plant response rating, Kochia (kochia (Kochia scoparia); [10]): 20; Plant response rating, Pigweed [4, 9]: 80; Plant response rating, Pigweed [4, 10]: 90; Plant response rating, Ragweed [5, 9]: 10; Plant response rating, Ragweed [5, 10]: 0; Plant response rating, Wheat ([6]; 1000 g ai/ha): 0; Plant response rating, Blackgrass ([7]; 1000 g ai/ha): 0; Plant response rating, Galium ([8]; 1000 g ai/ha): 10

**Q.** What does the source list for `ON=Cc1cc(-c2ccccc2Oc2ncc(Cl)cn2)no1` [Compound 37]?
**A.** Plant response rating, Ryegrass, Italian [1, 11]: 0; Plant response rating, Ryegrass, Italian [1, 12]: 0; Plant response rating, Barnyardgrass [2, 11]: 0; Plant response rating, Barnyardgrass [2, 12]: 0; Plant response rating, Corn (corn (Zea mays); 500 g ai/ha): 0; Plant response rating, Foxtail, Giant [3, 11]: 10; Plant response rating, Foxtail, Giant [3, 12]: 0; Plant response rating, Kochia (kochia (Kochia scoparia); [11]): 0; Plant response rating, Kochia (kochia (Kochia scoparia); [12]): 0; Plant response rating, Pigweed [4, 11]: 20; Plant response rating, Pigweed [4, 12]: 40; Plant response rating, Ragweed [5, 11]: 0; Plant response rating, Ragweed [5, 12]: 0; Plant response rating, Wheat ([6]; 500 g ai/ha): 0; Plant response rating, Blackgrass ([7]; 500 g ai/ha): 0; Plant response rating, Galium ([8]; 500 g ai/ha): 0

**Q.** Which “Plant response rating, Ryegrass, Italian” value [1, 9] does the source give for `O=Cc1cc(-c2c(Br)cccc2Oc2ncc(Cl)cn2)no1` [Compound 195] here?
**A.** Its value is 10.

**Q.** What about the “Plant response rating, Ryegrass, Italian” value [1, 10] of the same compound?
**A.** The value was 0.

**Q.** And the “Plant response rating, Barnyardgrass” value [2, 9]?
**A.** Its value is 10.

**Q.** What about the “Plant response rating, Barnyardgrass” value [2, 10] of the same compound?
**A.** Its value is 40.

**Q.** What about the “Plant response rating, Corn” value (corn (Zea mays); 1000 g ai/ha) of the same compound?
**A.** The value was 10.

**Q.** And the “Plant response rating, Foxtail, Giant” value [3, 9]?
**A.** The value was 10.

**Q.** What about the “Plant response rating, Foxtail, Giant” value [3, 10] of the same compound?
**A.** The value was 30.

**Q.** What about the “Plant response rating, Kochia” value (kochia (Kochia scoparia); [9]) of the same compound?
**A.** Its value is 10.

**Q.** What about the “Plant response rating, Kochia” value (kochia (Kochia scoparia); [10]) of the same compound?
**A.** The value was 0.

**Q.** What about the “Plant response rating, Pigweed” value [4, 9] of the same compound?
**A.** The value was 50.

**Q.** And the “Plant response rating, Pigweed” value [4, 10]?
**A.** The value was 60.

**Q.** What about the “Plant response rating, Ragweed” value [5, 9] of the same compound?
**A.** Its value is 10.

**Q.** And the “Plant response rating, Ragweed” value [5, 10]?
**A.** Its value is 10.

**Q.** And the “Plant response rating, Wheat” value ([6]; 1000 g ai/ha)?
**A.** The value was 0.

**Q.** What about the “Plant response rating, Blackgrass” value ([7]; 1000 g ai/ha) of the same compound?
**A.** The value was 0.

**Q.** And the “Plant response rating, Galium” value ([8]; 1000 g ai/ha)?
**A.** The value was 10.
